The results in this text go back to PMC7059199, “Identification and structural insight of an effective PPARγ modulator with improved therapeutic index for anti-diabetic drug discovery” (Chemical Science, 2020).

Series [1] has as its target hERG potassium ion channel (Homo sapiens, UniProt Q12809). Briefly: Inhibition assay on the hERG potassium ion channel. On the technique in general: The hERG channel carries a current that helps repolarise heart muscle cells.
A further series concerns 3T3-L1 cells. The experiment in a line: qPCR of adipogenic genes in 3T3-L1 cells. In kind it is cell-based, mouse. Conditions: 7 days after treatment. How it is done: Encouraged by the above results and to further determine whether VSP-77 activates PPARγ in 3T3-L1 cells, we evaluated the ability of VSP-77 to stimulate PPARγ activity by measuring the mRNA levels of endogenous PPARγ-regulated downstream genes linked to adipogenesis (primers are listed in Table S1 ^†).
Fig. 7 Expression of adipogenic genes in 3T3-L1 cells was analyzed by quantitative PCR (qPCR). Relative mRNA levels of the adipocyte differentiation genes PPARγ, aP2, CD36, LPL, C/EBPα and Fasn. mRNA was extracted from differentiating cells 7 days after treatment (n = 3, error bars = SEM). […]
(average±standard deviation calculated from three separate experiments). […]
Cells were stained with Oil Red O to estimate the lipid accumulation. The images were analyzed using ImageJ (National Institutes of Health).
For real-time PCR analysis, 1-2 μg total RNA was reverse-transcribed using the SuperScript cDNA Reverse Transcription Kit (Invitrogen) with SYBR Green PCR Master Mix (Invitrogen) and gene specific primers (Table S1) using a Roche Light Cycler 480 machine. The relative expression of mRNA was determined after normalization to β-actin level using the ΔΔ-Ct method. […]

A further series concerns the target T1, PPARδ (Homo sapiens, UniProt Q03181).
T1 sequence (Q03181 1-441): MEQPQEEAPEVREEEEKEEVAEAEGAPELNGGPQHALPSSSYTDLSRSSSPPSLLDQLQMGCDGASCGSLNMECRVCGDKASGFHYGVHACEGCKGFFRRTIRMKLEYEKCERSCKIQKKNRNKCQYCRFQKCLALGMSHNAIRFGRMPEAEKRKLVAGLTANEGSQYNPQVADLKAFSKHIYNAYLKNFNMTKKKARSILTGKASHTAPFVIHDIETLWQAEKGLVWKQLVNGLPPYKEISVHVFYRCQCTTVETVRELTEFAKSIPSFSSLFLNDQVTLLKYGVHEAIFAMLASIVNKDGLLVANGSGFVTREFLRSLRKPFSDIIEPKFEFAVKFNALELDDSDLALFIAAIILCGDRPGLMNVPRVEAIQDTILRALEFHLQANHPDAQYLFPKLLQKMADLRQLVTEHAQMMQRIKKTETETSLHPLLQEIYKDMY
The experiment in a line: Competitive TR-FRET assay, PPARδ. To be noted: even at 100 μM. A general note: In TR-FRET formats the signal depends on donor and acceptor labels being close together.

Another series has as its target T2, GST-PPARγ LBD (Homo sapiens, UniProt P37231).
T2 construct: 0.5 nM GST-PPARγ LBD was incubated with 5 nM Fluormone™; purchased Invitrogen
T2 sequence (P37231 238-503 limits assumed): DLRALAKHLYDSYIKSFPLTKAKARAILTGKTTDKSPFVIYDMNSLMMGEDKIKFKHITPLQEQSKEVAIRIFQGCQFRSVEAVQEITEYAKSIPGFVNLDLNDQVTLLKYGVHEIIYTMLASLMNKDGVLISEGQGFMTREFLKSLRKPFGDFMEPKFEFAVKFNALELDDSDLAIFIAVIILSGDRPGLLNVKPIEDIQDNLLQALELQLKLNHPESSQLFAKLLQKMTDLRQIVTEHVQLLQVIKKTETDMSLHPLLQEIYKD
The experiment in a line: LanthaScreen TR-FRET competitive binding assay, PPARγ.

Another series concerns HFD mice. Briefly: Anti-diabetic activity in high-fat diet (HFD) mice, 10 days. It is filed as in vivo, C57BL/6J mice.
In the next series the target is T3, PPARα (Homo sapiens, UniProt Q07869).
T3 sequence (Q07869 1-468): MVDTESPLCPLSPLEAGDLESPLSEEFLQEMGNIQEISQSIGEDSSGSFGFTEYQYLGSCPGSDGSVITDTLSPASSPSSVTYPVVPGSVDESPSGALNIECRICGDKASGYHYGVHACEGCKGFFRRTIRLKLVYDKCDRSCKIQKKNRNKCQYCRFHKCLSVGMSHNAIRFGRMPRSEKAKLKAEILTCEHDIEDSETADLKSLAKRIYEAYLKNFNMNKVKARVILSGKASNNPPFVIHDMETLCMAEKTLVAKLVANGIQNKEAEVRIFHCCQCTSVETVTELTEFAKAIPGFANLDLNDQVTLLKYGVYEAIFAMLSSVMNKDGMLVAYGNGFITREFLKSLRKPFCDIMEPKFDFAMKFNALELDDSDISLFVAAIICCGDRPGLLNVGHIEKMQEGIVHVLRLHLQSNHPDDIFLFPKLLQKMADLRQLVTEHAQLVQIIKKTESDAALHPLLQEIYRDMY
Briefly: Competitive TR-FRET assay, PPARα. Conditions: even at 100 μM.

“Also recorded” adds a separate entry of the source.

hERG potassium ion channel, sequence (Q12809 whole entry): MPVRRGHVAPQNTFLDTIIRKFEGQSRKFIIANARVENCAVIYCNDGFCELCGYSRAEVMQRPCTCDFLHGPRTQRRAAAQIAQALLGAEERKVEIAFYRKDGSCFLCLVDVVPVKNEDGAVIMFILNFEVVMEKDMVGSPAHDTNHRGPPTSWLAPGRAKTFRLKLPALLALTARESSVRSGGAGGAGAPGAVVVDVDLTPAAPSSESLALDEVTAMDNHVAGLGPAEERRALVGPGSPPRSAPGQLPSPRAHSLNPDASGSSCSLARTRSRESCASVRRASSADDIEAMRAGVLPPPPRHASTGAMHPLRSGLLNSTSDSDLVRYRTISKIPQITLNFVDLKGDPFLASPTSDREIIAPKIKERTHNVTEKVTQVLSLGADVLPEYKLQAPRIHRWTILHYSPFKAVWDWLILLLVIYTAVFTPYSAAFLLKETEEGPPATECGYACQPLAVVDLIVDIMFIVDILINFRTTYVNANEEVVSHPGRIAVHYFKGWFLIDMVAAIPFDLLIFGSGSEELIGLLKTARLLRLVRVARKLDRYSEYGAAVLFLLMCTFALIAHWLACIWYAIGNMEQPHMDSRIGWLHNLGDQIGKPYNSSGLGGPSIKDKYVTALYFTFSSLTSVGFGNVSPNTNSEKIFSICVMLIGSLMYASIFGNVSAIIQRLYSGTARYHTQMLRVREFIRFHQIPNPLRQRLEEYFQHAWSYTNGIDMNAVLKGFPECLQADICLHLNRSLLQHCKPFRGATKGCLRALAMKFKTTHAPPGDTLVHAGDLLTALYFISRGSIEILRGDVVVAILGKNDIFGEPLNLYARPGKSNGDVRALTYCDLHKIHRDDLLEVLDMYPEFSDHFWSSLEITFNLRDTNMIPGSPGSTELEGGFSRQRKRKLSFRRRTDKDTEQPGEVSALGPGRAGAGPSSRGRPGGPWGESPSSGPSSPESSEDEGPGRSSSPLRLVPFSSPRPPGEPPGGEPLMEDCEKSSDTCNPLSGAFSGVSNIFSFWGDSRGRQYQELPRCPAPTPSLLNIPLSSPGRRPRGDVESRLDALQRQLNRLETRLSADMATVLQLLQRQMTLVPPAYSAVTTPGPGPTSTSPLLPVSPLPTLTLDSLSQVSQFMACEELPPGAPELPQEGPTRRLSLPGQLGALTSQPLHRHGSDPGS
Method for GST-PPARγ LBD: LanthaScreen™ TR-FRET assay (Invitrogen) was used for measuring the binding affinities of the ligands. 0.5 nM GST-PPARγ LBD was incubated with 5 nM Fluormone™ and Terbium-coated GST antibody.
Competitive TR -FRET binding assay
The GST PPARγ -LBD was labeled with a terbium-linked antibody and a fluorescent small molecule pan-PPAR ligand (Fluormone™ Pan-PPAR Green, Invitrogen) was used as a tracer that is displaced from the ligand binding domain upon agonist binding.
Excitation of the terbium at 340 nm results in FRET to the fluorescent tracer, with
Tracer displacment results is a loss of FRET signal between the terbium label and the fluorescent tracer.
The inhibition constant (ki) for a competitor was calculated by applying the
Cheng-Prusoff equation as following:
the tracer, [tracer] is the concentration of Fluormone™ Pan-PPAR Green used in the

What is called IC50 is the midpoint of a concentration-inhibition curve. For orientation: Ki means the dissociation constant of the complex between target and ligand, obtained from inhibition or displacement. In series [1], `CCCCCCCC(OCC(=O)O)c1ccc(Cl)cc1` (stereo not shown) [VSP-77] returned a concentration for half-maximal inhibition (IC50) of over 50 µM. Also, the “hERG inhibition (in words)” value in series [1] (even at 50 μM) was “no obvious inhibition; also recorded: no detectable hERG inhibition”. Further, the “expression of adipogenic genes PPARγ, aP2, CD36, LPL, C/EBPα and Fasn (mRNA)” value in the series with 3T3-L1 cells is listed as “only weakly stimulated”. At PPARδ, the “effect on PPARδ (in words)” value is reported as “no obvious effects”. Also, the “binding to PPARγ (in words)” value on GST-PPARγ LBD (at 10 μM) was “potent binding affinity”. Also, the Ki on GST-PPARγ LBD (competition of Fluormone (5 nM), 0.5 nM GST-PPARγ LBD) amounted to 4.8 µM. Further, on GST-PPARγ LBD (higher than DA), the “binding affinity for PPARγ relative to DA” value is “about 10 fold”. For the same molecule, the “expression of key adipogenesis-related genes in adipose tissue” value in the series on HFD mice was “does not induce”. In the series on HFD mice (5 mg/kg i.p.), the “Cdk5-mediated phosphorylation of PPARγ at Ser-273 in adipose tissue” value was “decrease”; the “body weight and food intake compared to vehicle-treated mice” value is listed as “without significant differences”; the “expression of glut4 and adiponectin in adipose tissue” value is recorded as “selectively induced”; the fasting insulin levels entry is “significant reduction”. Further, in the series with HFD mice (5 mg/kg i.p.), the glucose levels result is “lowered”; the “insulin resistance (HOMA-IR)” value is “clear and dose-dependent improvement”; the “organ / fat weight” value is “selectively decreased subcutaneous and perirenal fats”. Also, at PPARα, the “effect on PPARα (in words)” value is recorded as “no obvious effects”.
